From patent US6855872B2 (priority 1997, dated 2005)

Key:
[1] = test system: cells of transgenic line expressing the rice Rpl3c:258 (N.dpCARPLC4); format: cell-based, N. debneyi
[2] = test system: protoplasts from wild-type tobacco plants; format: cell-based, Nicotiana tabacum
[3] = test system: maize embryogenic cultures (A188xB73) transformed with pActRPLC4; format: cell-based
[4] = test system: leaf explants of pCAPRL3 plants; format: cell-based
[5] = test system: leaf explants of wild-type plants; format: cell-based
[6] = test system: protoplasts from transgenic plants with the rice Rpl3 gene (C3 lines); format: cell-based, Nicotiana tabacum
mature maize embryos = conditions: cited from earlier work
[7] = test system: wheat anther-derived callus tissue; conditions: cited from earlier work
[8] = test system: cell suspensions of pCARPL3 plants (N.d.pCARPL3); format: cell-based, N. debneyi
[9] = test system: maize embryogenic cultures (A188xB73) transformed with pActRPL3; format: cell-based
[10] = test system: protoplasts of the genotype Rpl3:c258 (C4 lines); format: cell-based, Nicotiana tabacum
[11] = test system: wild type non-transformed N. debneyi cell suspension (N.d.wt); format: cell-based
[12] = test system: leaf explants from pCARPLC4 plants; format: cell-based

Structure (SMILES): CC1=C[C@H]2O[C@@H]3[C@H](O)C[C@](C)([C@@]2(CO)[C@H](O)C1=O)[C@]31CO1 [DON, deoxynivalenol]
- impact on packed cell volume or cell fresh weight gain [1]: less serious impact
- weight gain of cells after 20 days in culture [1]: not inhibited as much
- susceptibility of wild-type plants (protoplasts) to DON [2]: susceptible
- DON required to reduce growth to 15% of control values [3]: 50 µg/mL
- callus growth, % of the control [3]: 63%
- increase in tolerance to DON by the RPLC4 callus [3]: 10 fold
- formation of callus and shoots on leaf explants [4]: inhibiting the formation of callus and shoots
- formation of callus and shoots on leaf explants [5]: inhibiting the formation of callus and shoots
- micro colony formation from protoplasts [6]: did not often develop into calli
- DON concentration sufficient to significantly inhibit growth (mature maize embryos): 10 µg/mL
- growth of wheat anther-derived callus tissue [7]: reduces growth
- packed cell volume and fresh weight gain of cell suspensions [8]: sufficient to inhibit
- weight gain of cells after 20 days in culture [8]: inhibited
- callus growth, % of the control [9]: 15%
- micro colony formation from protoplasts [10]: capable of transfer to regeneration medium
- viability of protoplasts [10]: not significantly affected
- weight gain of cells after 20 days in culture [11]: inhibited
- shoot regeneration on leaf explants [12]: capable of shoot regeneration
